Molecular target: T1, Recombinant human TPH1 (MBP tagged) (Homo sapiens, UniProt P17752)
T1 construct: cloning full length human TPH1 cDNA in to a bacterial pMAL-c5E expression vector; made in house; host or cells: E. coli BL21 (DE3)
T1 sequence (P17752 1-444): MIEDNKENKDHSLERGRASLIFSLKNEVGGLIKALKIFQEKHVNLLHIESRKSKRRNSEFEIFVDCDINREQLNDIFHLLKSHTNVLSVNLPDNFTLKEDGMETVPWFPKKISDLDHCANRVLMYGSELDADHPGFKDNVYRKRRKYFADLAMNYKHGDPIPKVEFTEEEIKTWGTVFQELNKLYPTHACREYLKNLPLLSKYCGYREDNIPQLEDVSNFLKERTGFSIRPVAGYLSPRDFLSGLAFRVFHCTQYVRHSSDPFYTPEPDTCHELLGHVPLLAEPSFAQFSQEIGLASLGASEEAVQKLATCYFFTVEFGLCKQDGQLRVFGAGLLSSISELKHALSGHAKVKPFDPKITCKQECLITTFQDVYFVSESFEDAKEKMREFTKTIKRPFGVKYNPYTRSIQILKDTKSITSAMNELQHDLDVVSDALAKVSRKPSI
Test: TPH1 in vitro inhibition assay (kinetic fluorescence)
Format: biochemical
Conditions: read-out: TPH1 Range (TPH1 inhibition IC50)
Summary of the method: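 Final mix: 15 nM MBP-TPH1, 30 μM Trp, 36 μM 6-methyltetrahydropterin, 25 μM ferrous ammonium sulfate, 50 mM MES pH 7.1, 1% DMSO, room temperature.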

Structure (SMILES) | IC50
COc1cc(-c2ccc([C@@H](Oc3cc(N4CCC5(CC4)CN[C@H](C(=O)O)C5)nc(C)n3)C(F)(F)F)c(-n3ccc(C)n3)c2)ccn1 [Example 29a, (S)-8-(2-methyl-6-((R)-2,2,2-trifluoro-1-(4-(2-methoxypyridin-4-yl)-2-(3-methyl-1H-pyrazol-1-yl)phenyl)ethoxy)pyrimidin-4-yl)-2,8-diazaspiro[4.5]decane-3-carboxylic acid] | < 50 nM
Cc1ccn(-c2cc(-c3ccc(S(C)(=O)=O)cc3)ccc2[C@@H](Oc2cc(N3CCC4(CC3)CN[C@H](C(=O)O)C4)nc(C)n2)C(F)(F)F)n1 [Example 29b, (S)-8-(2-methyl-6-((R)-2,2,2-trifluoro-1-(3-(3-methyl-1H-pyrazol-1-yl)-4′-(methylsulfonyl)-[1,1′-biphenyl]-4-yl)ethoxy)pyrimidin-4-yl)-2,8-diazaspiro[4.5]decane-3-carboxylic acid] | < 50 nM
Cc1ccn(-c2cc(-c3ccc(F)c(F)c3)ccc2[C@@H](Oc2cc(N3CCC4(CC3)CN[C@H](C(=O)O)C4)nc(C)n2)C(F)(F)F)n1 [Example 29c, (S)-8-(6-((R)-1-(3′,4′-difluoro-3-(3-methyl-1H-pyrazol-1-yl)-[1,1′-biphenyl]-4-yl)-2,2,2-trifluoroethoxy)-2-methylpyrimidin-4-yl)-2,8-diazaspiro[4.5]decane-3-carboxylic acid] | 50 to 300 nM
Cc1ccn(-c2cc(-c3ccc(C)c(C)c3)ccc2[C@@H](Oc2cc(N3CCC4(CC3)CN[C@H](C(=O)O)C4)nc(C)n2)C(F)(F)F)n1 [Example 29d, (S)-8-(6-((R)-1-(3′,4′-dimethyl-3-(3-methyl-1H-pyrazol-1-yl)-[1,1′-biphenyl]-4-yl)-2,2,2-trifluoroethoxy)-2-methylpyrimidin-4-yl)-2,8-diazaspiro[4.5]decane-3-carboxylic acid] | < 50 nM
COc1ccc(-c2ccc([C@@H](Oc3cc(N4CCC5(CC4)CN[C@H](C(=O)O)C5)nc(C)n3)C(F)(F)F)c(-n3ccc(C)n3)c2)cn1 [Example 29f, (S)-8-(2-methyl-6-((R)-2,2,2-trifluoro-1-(4-(6-methoxypyridin-3-yl)-2-(3-methyl-1H-pyrazol-1-yl)phenyl)ethoxy)pyrimidin-4-yl)-2,8-diazaspiro[4.5]decane-3-carboxylic acid] | < 50 nM
CCOC(=O)c1ccc(-c2ccc([C@@H](Oc3cc(N4CCC5(CC4)CN[C@H](C(=O)O)C5)nc(C)n3)C(F)(F)F)c(-n3ccc(C)n3)c2)cc1 [Example 29i, (S)-8-(6-((R)-1-(4′-(ethoxycarbonyl)-3-(3-methyl-1H-pyrazol-1-yl)-[1,1′-biphenyl]-4-yl)-2,2,2-trifluoroethoxy)-2-methylpyrimidin-4-yl)-2,8-diazaspiro[4.5]decane-3-carboxylic acid] | < 50 nM

More lines, now with the values ahead:

IC50 | Structure (SMILES)
50 to 300 nM | CCOC(=O)c1cccc(-c2ccc([C@@H](Oc3cc(N4CCC5(CC4)CN[C@H](C(=O)O)C5)nc(C)n3)C(F)(F)F)c(-n3ccc(C)n3)c2)c1 [Example 29e, (S)-8-(6-((R)-1-(3′-(ethoxycarbonyl)-3-(3-methyl-1H-pyrazol-1-yl)-[1,1′-biphenyl]-4-yl)-2,2,2-trifluoroethoxy)-2-methylpyrimidin-4-yl)-2,8-diazaspiro[4.5]decane-3-carboxylic acid]
< 50 nM | COc1ncc(-c2ccc([C@@H](Oc3cc(N4CCC5(CC4)CN[C@H](C(=O)O)C5)nc(C)n3)C(F)(F)F)c(-n3ccc(C)n3)c2)cn1 [Example 29g, (S)-8-(2-methyl-6-((R)-2,2,2-trifluoro-1-(4-(2-methoxypyrimidin-5-yl)-2-(3-methyl-1H-pyrazol-1-yl)phenyl)ethoxy)pyrimidin-4-yl)-2,8-diazaspiro[4.5]decane-3-carboxylic acid]
< 50 nM | COc1ccc(-c2ccc([C@@H](Oc3cc(N4CCC5(CC4)CN[C@H](C(=O)O)C5)nc(C)n3)C(F)(F)F)c(-n3ccc(C)n3)c2)c(OC)c1 [Example 29h, (S)-8-(6-((R)-1-(2′,4′-dimethoxy-3-(3-methyl-1H-pyrazol-1-yl)-[1,1′-biphenyl]-4-yl)-2,2,2-trifluoroethoxy)-2-methylpyrimidin-4-yl)-2,8-diazaspiro[4.5]decane-3-carboxylic acid]

From patent US11759462B2, “Spirocyclic compounds as tryptophan hydroxylase inhibitors” (priority 2013, dated 2023)
